Reference: PubChem BioAssay AID222 (DTP/NCI, 2004)
Where “and” joins values, the source holds several entries; their conditions need not be identical. Equal values may be shown once. Inconclusive results and toxic doses are left out. How the source made its calls: active means survival T/C of 150% or more; inactive means T/C below 125% in these data.

System: C57BL/6 mice, intracerebral ependymoblastoma, median survival T/C
Assay: NCI In Vivo Anticancer Drug Screen. Data for tumor model Ependymoblastoma (intracerebral) in C57BL/6 mice
Settings: endpoint: median survival time, higher = longer survival
Procedure: The antitumor activity of compounds was measured in mice bearing transplantable tumors. Survival or tumor size were measured and the results are expressed as the measurement made in the treated group (T) divided by the measurement made in the vehicle treated control group (C). The tumor model used in this assay is Ependymoblastoma (intracerebral) in C57BL/6 mice

[1] = dose: 1.0 mg/kg/injection, schedule: Q01DX005 (ip), vehicle: water
[2] = dose: 2.0 mg/kg/injection, schedule: Q01DX005 (ip), vehicle: Klucel (hydroxypropylcellulose) (HPC)
[3] = dose: 4.0 mg/kg/injection, schedule: Q01DX005 (ip), vehicle: Klucel (hydroxypropylcellulose) (HPC)
[4] = dose: 4.0 mg/kg/injection, schedule: Q01DX005 (ip), vehicle: water
[5] = dose: 8.0 mg/kg/injection, schedule: Q01DX005 (ip), vehicle: Klucel (hydroxypropylcellulose) (HPC)
[6] = dose: 16.0 mg/kg/injection, schedule: Q01DX005 (ip), vehicle: Klucel (hydroxypropylcellulose) (HPC)
[7] = dose: 64.0 mg/kg/injection, schedule: Q01DX005 (ip), vehicle: Klucel (hydroxypropylcellulose) (HPC)
[8] = dose: 32.0 mg/kg/injection, schedule: Q01DX005 (ip), vehicle: Klucel (hydroxypropylcellulose) (HPC)

Measured: T/C

COc1cc(NS(C)(=O)=O)ccc1Nc1c2ccccc2nc2ccccc12
inactive: dose: 1.0 mg/kg/injection, schedule: Q01DX005 (ip), vehicle: Klucel (hydroxypropylcellulose) (HPC) 93 % of control and 108 % of control | dose: 1.0 mg/kg/injection, schedule: Q01DX005 (ip), vehicle: saline + alcohol 93 % of control and 108 % of control and 116 % of control | [1] 89 % of control and 110 % of control | [2] 98 % of control and 104 % of control | dose: 2.0 mg/kg/injection, schedule: Q01DX005 (ip), vehicle: saline + alcohol 94 % of control and 109 % of control and 112 % of control | dose: 2.0 mg/kg/injection, schedule: Q01DX005 (ip), vehicle: water 105 % of control and 108 % of control | [3] 112 % of control | dose: 4.0 mg/kg/injection, schedule: Q01DX005 (ip), vehicle: saline + alcohol 90 % of control and 98 % of control | [4] 103 % of control and 107 % of control | dose: 4.0 mg/kg/injection, schedule: Q#A X002 (ip), vehicle: Klucel (hydroxypropylcellulose) (HPC) 89 % of control and 105 % of control | dose: 8.0 mg/kg/injection, schedule: Q01DX001 (ip), vehicle: Klucel (hydroxypropylcellulose) (HPC) 90 % of control and 96 % of control and 106 % of control | [5] 116 % of control | dose: 8.0 mg/kg/injection, schedule: Q#A X002 (ip), vehicle: Klucel (hydroxypropylcellulose) (HPC) 91 % of control and 92 % of control | dose: 16.0 mg/kg/injection, schedule: Q01DX001 (ip), vehicle: Klucel (hydroxypropylcellulose) (HPC) 104 % of control (2×) and 107 % of control | dose: 16.0 mg/kg/injection, schedule: Q01DX001 (oral), vehicle: Klucel (hydroxypropylcellulose) (HPC) 99 % of control and 113 % of control | dose: 16.0 mg/kg/injection, schedule: Q#A X002 (ip), vehicle: Klucel (hydroxypropylcellulose) (HPC) 90 % of control | dose: 32.0 mg/kg/injection, schedule: Q01DX001 (ip), vehicle: Klucel (hydroxypropylcellulose) (HPC) 89 % of control and 101 % of control and 107 % of control | dose: 32.0 mg/kg/injection, schedule: Q01DX001 (oral), vehicle: Klucel (hydroxypropylcellulose) (HPC) 108 % of control | dose: 32.0 mg/kg/injection, schedule: Q#A X002 (ip), vehicle: Klucel (hydroxypropylcellulose) (HPC) 89 % of control and 93 % of control | dose: 64.0 mg/kg/injection, schedule: Q01DX001 (ip), vehicle: Klucel (hydroxypropylcellulose) (HPC) 91 % of control | dose: 64.0 mg/kg/injection, schedule: Q01DX001 (oral), vehicle: Klucel (hydroxypropylcellulose) (HPC) 94 % of control and 97 % of control | dose: 64.0 mg/kg/injection, schedule: Q#A X002 (ip), vehicle: Klucel (hydroxypropylcellulose) (HPC) 89 % of control and 91 % of control | dose: 128.0 mg/kg/injection, schedule: Q01DX001 (oral), vehicle: Klucel (hydroxypropylcellulose) (HPC) 90 % of control and 102 % of control | dose: 256.0 mg/kg/injection, schedule: Q01DX001 (oral), vehicle: Klucel (hydroxypropylcellulose) (HPC) 91 % of control

C[C@@H](CN1CC(=O)NC(=O)C1)N1CC(=O)NC(=O)C1
inactive: [1] 110 % of control | [3] 103 % of control (2×) and 118 % of control | dose: 4.0 mg/kg/injection, schedule: Q01DX005 (ip), vehicle: saline with Tween-80 103 % of control | [4] 106 % of control | dose: 8.0 mg/kg/injection, schedule: Q01DX005 (ip), vehicle: saline with Tween-80 104 % of control | [6] 106 % of control and 112 % of control and 120 % of control | dose: 16.0 mg/kg/injection, schedule: Q01DX005 (ip), vehicle: saline with Tween-80 108 % of control | dose: 16.0 mg/kg/injection, schedule: Q01DX005 (ip), vehicle: water 111 % of control | dose: 32.0 mg/kg/injection, schedule: Q01DX005 (ip), vehicle: saline with Tween-80 112 % of control | dose: 32.0 mg/kg/injection, schedule: Q01DX005 (ip), vehicle: saline 108 % of control and 111 % of control | [7] 115 % of control and 121 % of control | dose: 64.0 mg/kg/injection, schedule: Q01DX005 (ip), vehicle: saline with Tween-80 113 % of control | dose: 64.0 mg/kg/injection, schedule: Q01DX005 (ip), vehicle: saline 119 % of control and 121 % of control | dose: 64.0 mg/kg/injection, schedule: Q01DX005 (ip), vehicle: water 116 % of control | dose: 128.0 mg/kg/injection, schedule: Q01DX005 (ip), vehicle: saline 120 % of control

CCC(=O)O[C@H]1CC[C@H]2[C@@H]3[C@@H](C)CC4=CC(=O)CC[C@]4(C)[C@H]3CC[C@]12C
inactive: [8] 104 % of control | [7] 105 % of control and 106 % of control | dose: 128.0 mg/kg/injection, schedule: Q01DX001 (ip), vehicle: Klucel (hydroxypropylcellulose) (HPC) 106 % of control | dose: 128.0 mg/kg/injection, schedule: Q01DX005 (ip), vehicle: Klucel (hydroxypropylcellulose) (HPC) 105 % of control and 111 % of control | dose: 128.0 mg/kg/injection, schedule: Q01DX005 (oral), vehicle: Klucel (hydroxypropylcellulose) (HPC) 109 % of control | dose: 256.0 mg/kg/injection, schedule: Q01DX001 (ip), vehicle: Klucel (hydroxypropylcellulose) (HPC) 93 % of control | dose: 256.0 mg/kg/injection, schedule: Q01DX005 (ip), vehicle: Klucel (hydroxypropylcellulose) (HPC) 103 % of control and 113 % of control | dose: 256.0 mg/kg/injection, schedule: Q01DX005 (oral), vehicle: Klucel (hydroxypropylcellulose) (HPC) 97 % of control | dose: 512.0 mg/kg/injection, schedule: Q01DX001 (ip), vehicle: Klucel (hydroxypropylcellulose) (HPC) 103 % of control | dose: 512.0 mg/kg/injection, schedule: Q01DX005 (ip), vehicle: Klucel (hydroxypropylcellulose) (HPC) 105 % of control and 107 % of control | dose: 512.0 mg/kg/injection, schedule: Q01DX005 (oral), vehicle: Klucel (hydroxypropylcellulose) (HPC) 90 % of control | dose: 1024.0 mg/kg/injection, schedule: Q01DX001 (ip), vehicle: Klucel (hydroxypropylcellulose) (HPC) 96 % of control | dose: 1024.0 mg/kg/injection, schedule: Q01DX005 (oral), vehicle: Klucel (hydroxypropylcellulose) (HPC) 113 % of control

NNC(=O)c1ccncc1
inactive: dose: 28.75 mg/kg/injection, schedule: Q01DX005 (ip), vehicle: saline 94 % of control | dose: 57.5 mg/kg/injection, schedule: Q01DX005 (ip), vehicle: saline 102 % of control | dose: 115.0 mg/kg/injection, schedule: Q01DX005 (ip), vehicle: saline 105 % of control

COc1cc([C@@H]2c3cc4c(cc3[C@@H](OC3OC5CO[C@@H](c6cccs6)OC5C(O)C3O)[C@H]3COC(=O)[C@H]23)OCO4)cc(OC)c1O (stereo partly specified)
inactive: dose: 0.06 mg/kg/injection, schedule: Q01DX005 (ip), vehicle: saline 101 % of control | dose: 0.12 mg/kg/injection, schedule: Q01DX005 (ip), vehicle: saline 95 % of control | dose: 0.25 mg/kg/injection, schedule: Q01DX005 (ip), vehicle: saline 97 % of control | dose: 0.5 mg/kg/injection, schedule: Q01DX005 (ip), vehicle: saline 99 % of control | dose: 1.0 mg/kg/injection, schedule: Q01DX005 (ip), vehicle: saline 104 % of control | dose: 1.0 mg/kg/injection, schedule: Q01DX005 (oral), vehicle: saline 101 % of control | dose: 2.0 mg/kg/injection, schedule: Q01DX005 (ip), vehicle: saline 114 % of control | dose: 4.0 mg/kg/injection, schedule: Q01DX005 (oral), vehicle: saline 104 % of control | dose: 8.0 mg/kg/injection, schedule: Q01DX005 (oral), vehicle: saline 100 % of control | dose: 16.0 mg/kg/injection, schedule: Q01DX005 (oral), vehicle: saline 95 % of control

COC1C(O)C(C)OC(OC2C(Oc3cccc4c(O)c5c(=O)oc6ccc(C)c7c(=O)oc(c34)c5c67)OC(C)C(O)C2O)C1O (stereo unspecified)
inactive: [2] 105 % of control and 122 % of control and 124 % of control | [3] 95 % of control and 106 % of control | [5] 90 % of control and 111 % of control and 122 % of control | [6] 99 % of control and 113 % of control and 124 % of control | [8] 97 % of control and 103 % of control | [7] 99 % of control and 105 % of control and 107 % of control
